Measured values reported in patent publication US7897401B2, “Control of apoptosis by controlling the propensity of ceramide channel formation” (University of Maryland, College Park, priority 2005, dated 2011).

Experiments:
mammalian MOM = test: Ceramide-induced permeabilization of mammalian MOM; assay type: biochemical; conditions: C16-ceramide; read-out: IC50 for inhibition of C16-ceramide-induced permeabilization of mammalian MOM
yeast mitochondria = test: Ceramide-induced permeabilization in yeast mitochondria; assay type: biochemical
ceramide channels = test: Screening for influence on ceramide channel formation in liposomes or planar membranes; assay type: biochemical
Source text: In one embodiment, such methods comprise screening compounds for their ability to influence the formation of ceramide channels in liposomes or planar membranes. […] Such liposomes or planar membranes can be produced using any of a variety of lipids. Preferably, however, the constituents of the liposomes or planar membranes will be selected to mimic those of the MOM, or to have relevance to such membranes (see, Weissig, V. et al. (2006) “LIPOSOMES AND LIPOSOME-LIKE VESICLES FOR DRUG AND DNA DELIVERY TO MITOCHONDRIA,” J. Liposome Res. 16(3):249-264; Torchilin, V. P. (2006) “RECENT APPROACHES TO INTRACELLULAR DELIVERY OF DRUGS AND DNA AND ORGANELLE TARGETING,” Annu. Rev. Biomed. Eng. 8:343-375; Elrick, M. J. et al. (2006) “SPHINGOSINE, A PRODUCT OF CERAMIDE HYDROLYSIS, INFLUENCES THE FORMATION OF CERAMIDE CHANNELS,” Biophys. J. 1; 91(5):1749-1756; Bathori, G. et al. (2006) “CA2+-DEPENDENT CONTROL OF THE PERMEABILITY PROPERTIES OF THE MITOCHONDRIAL OUTER MEMBRANE AND VOLTAGE-DEPENDENT ANION-SELECTIVE CHANNEL (VDAC),” J. Biol. Chem. 281(25):17347-17358; Stiban, J. et al. (2006) “DIHYDROCERAMIDE HINDERS CERAMIDE CHANNEL FORMATION: IMPLICATIONS ON APOPIOSIS,” Apoptosis 11(5):773-780; Stover, T. C. et al. (2005) “SYSTEMIC DELIVERY OF LIPOSOMAL SHORT-CHAIN CERAMIDE LIMITS SOLID TUMOR GROWTH IN MURINE MODELS OF BREAST ADENOCARCINOMA,” Clin. Cancer Res. 11(9):3465-3474).

[1] = system: C16-ceramide channels in the MOM of yeast mitochondria; test: Complex IV accessibility assay, isolated yeast mitochondria; assay type: biochemical; conditions: 20 μg protein, 20 μM C16-ceramide, 10 min each, FIG. 13D-F
Method: (§1) The ability of the naturally-occurring C16-ceramide to form channels in the mitochondrial outer membranes of isolated yeast mitochondria was assessed via the complex IV accessibility assay. This assay measures the bidirectional flux of cytochrome c across the mitochondrial outer membrane (MOM) by monitoring its oxidation by complex IV of the mitochondrial inner membrane electron transport chain. The initial rate of cytochrome c oxidation when expressed as a percent of the rate measured in mitochondria with damaged outer membranes is a good measure of the permeability of the MOM to proapoptotic proteins. This method has an advantage over simply looking for the release of cytochrome c because both channel prevention and reversal by a potential inhibitor can be evaluated.
Thus, mitochondria are isolated from wild type yeast and yeast strains expressing either human Bcl-2 or Bcl-xL according to previously published methods (Lee, A. et al. (1998) “THE ROLE OF YEAST VDAC GENES ON THE PERMEABILITY OF THE MITOCHONDRIAL OUTER MEMBRANE,” J. Membr. Biol. 161:173-181). Isolated yeast mitochondria are incubated with the naturally occurring C16-ceramide and its ability to form channels is evaluated according to the complex IV accessibility assay (Siskind, L. J. et al. (2002) “CERAMIDE CHANNELS INCREASE THE PERMEABILITY OF THE MITOCHONDRIAL OUTER MEMBRANE To SMALL PROTEINS,” J. Biol. Chem. 277:26796-26803). This assay measures the CN-sensitive oxidation of exogenously-added reduced cytochrome c by cytochrome c oxidase of the inner membrane. It measures the permeability of the mitochondrial outer membrane (MOM) to cytochrome c. […] Mitochondria are incubated with test agents (e.g., C16-ceramide) for a predetermined period of time (e.g., 5-20 minutes), reduced cytochrome c is added and the absorbance is monitored at 550 nm. […]
The complex IV accessibility measures of the permeability of the MOM. The initial rate is expressed as a percentage of the rate of cytochrome c oxidation in mitochondria whose outer membranes are ruptured by hypotonic shock. […]

[2] = system: ceramide channel in planar phospholipid membrane; test: Electrophysiological recordings on planar phospholipid membranes; assay type: biochemical; conditions: 0.15 μM protein added while stirring, voltage clamp, FIG. 16
Source text: Planar phospholipid membranes were produced by the monolayer method (Montal, M. et al. (1972) “FORMATION OF BIMOLECULAR MEMBRANES FROM LIPID MONOLAYERs AND A STUDY OF THEIR ELECTRICAL PROPERTIES,” Proc. Natl. Acad. Sci. USA 69:3561-3566) as modified by Colombini, M. (1987) (“CHARACTERIZATION OF CHANNELS ISOLATED FROM PLANT MITOCHONDRIA,” Methods Enzymol. 148:465-475), across a 100-μm-diameter hole in a Saran partition. Monolayers were produced using a solution of 0.5% w/v asolectin, 0.5% w/v DiPhyPC, 0.1% w/v cholesterol in hexane. This technique produces solvent-free phospholipid membranes whose lipid composition (focusing on the polar head-groups) is similar to that found in the mitochondrial outer membrane. It differs from the natural membrane in lacking proteins.
The aqueous solutions contained 1 mM MgCl2, and 5 mM Pipes pH 6.8 with KCl varying from 0.10 M to 1.0 M. The KCl concentration on one side of the membrane, referred to as the “trans” side, was always 0.10 M, whereas the other side (the “cis” side) was adjusted as needed. The transmembrane voltage was electronically clamped and the current through the membrane was recorded. The voltage values indicated are the voltage differences across the membrane cis side minus trans side.
C2-ceramide was stirred into the aqueous solution on each side of the membrane from a solution in DMSO, generally 0.5 mg/ml. Single or multiple additions, typically […] each, yielding a final concentration of 2 μg/ml, were made to achieve a desired level of conductance. Sphingosine additions of 5 μl were made from a solution in DMSO (4 mg/mL) yielding a final concentration of 4 μg/mL.
The observation that anti-apoptotic Bcl-2 family proteins inhibit ceramide channel formation in isolated yeast and rat liver mitochondria correlates with previous reports showing inhibition of ceramide-induced apoptosis in whole cells by these proteins. Thus the results directly tie ceramide-induced mitochondrial-mediated apoptosis with the Bcl-2 family of proteins known to regulate these events. To address whether the antiapoptotic proteins act directly on ceramide channels or work by an indirect action, their affects on ceramide channels in solvent-free planar phospholipid membranes was tested. This is a defined system free of other proteins. When C16-ceramide is added to the aqueous solution bathing one side of a planar phospholipid membrane, it results in discontinuous increases in conductance under voltage-clamp conditions, the defining characteristic of channel formation in membranes. These conductance increments are the enlargement of one ceramide channel rather than the formation of multiple ceramide channels in parallel (Siskind, L. J. et al. (2003) “ENLARGEMENT AND CONTRACTURE OF C2-CERAMIDE CHANNELS,” Biophys. J. 85:1560-1575). […]

[3] = system: ceramide channels in the MOM of rat liver mitochondria; test: Complex IV accessibility assay (cytochrome c oxidation), isolated rat liver mitochondria; assay type: biochemical
Source text: The amount of ceramide that needs to be added to mitochondria to achieve permeabilization of the MOM to proteins is high compared to physiological levels. However, it is not the absolute ceramide concentration in solution that is important, but rather the concentration of ceramide in the membrane. In addition, only a small percentage of the ceramide added to the solution actually inserts into the membrane. This issue was directly addressed by using radiolabeled ceramide and simultaneously measuring how much ceramide inserts into rat liver mitochondria and how much permeabilization is achieved in the MOM by measuring the accessibility of exogenously added cytochrome c. […] Levels measured in mitochondria in the early stages of apoptosis are 4 pmoles per nmole. Thus, the results are well within the physiological range. Note that after correcting for the membrane partitioning, long and short-chain ceramide have equal potency as expected from the model of the ceramide channel.
as §1
Thus, mitochondria are isolated from wild type yeast and yeast strains expressing either human Bcl-2 or Bcl-xL according to previously published methods (Lee, A. et al. (1998) “THE ROLE OF YEAST VDAC GENES ON THE PERMEABILITY OF THE MITOCHONDRIAL OUTER MEMBRANE,” J. Membr. Biol. 161:173-181). Isolated yeast mitochondria are incubated with the naturally occurring C16-ceramide and its ability to form channels is evaluated according to the complex IV accessibility assay (Siskind, L. J. et al. (2002) “CERAMIDE CHANNELS INCREASE THE PERMEABILITY OF THE MITOCHONDRIAL OUTER MEMBRANE To SMALL PROTEINS,” J. Biol. Chem. 277:26796-26803). This assay measures the CN-sensitive oxidation of exogenously-added reduced cytochrome c by cytochrome c oxidase of the inner membrane. […] Mitochondria are incubated with test agents (e.g., C16-ceramide) for a predetermined period of time (e.g., 5-20 minutes), reduced cytochrome c is added and the absorbance is monitored at 550 nm. […]

erythrocytes = test: Permeabilization of erythrocytes (osmolytes of varying molecular weight); assay type: cell-based
[4] = system: ceramide channels in mitochondrial outer membranes; test: Dihydroceramide inhibition of ceramide channel formation in mitochondrial outer membranes (rate of oxidation of exogenously-added cytochrome c); assay type: biochemical
Source text: The permeability was monitored by recording the rate of oxidation of exogenously-added cytochrome c. Ceramide (C2) was present at all data points except for the highest amount of dihydroceramide (DHC2) added (29 nmol).

Molecule: CCCCOc1cc(C(=O)NCCN(CC)CC)c2ccccc2n1 [dibucaine]
- IC50 (mammalian MOM): 230 µM
- effect on ceramide C2-induced permeabilization (yeast mitochondria): inhibited
- effect on ceramide C16-induced permeabilization (yeast mitochondria): somewhat potentiated

Molecule: CC(C)NCC(O)COc1cccc2ccccc12 (stereo not shown) [propranolol]
- IC50 (mammalian MOM): 410 µM
- effect on ceramide C2-induced permeabilization (yeast mitochondria): inhibited
- effect on ceramide C16-induced permeabilization (yeast mitochondria): somewhat potentiated

Molecule: OC[C@H]1O[C@H](O[C@H]2O[C@H](CO)[C@@H](O)[C@H](O)[C@H]2O)[C@H](O)[C@@H](O)[C@@H]1O [trehalose]
- concentration exhibiting potent inhibitory effects on ceramide channels (ceramide channels): 50 mM

Molecule: FL Bcl-xL: purified recombinant full-length anti-apoptotic protein Bcl-xL
- effect on C16-ceramide channels (prevention and reversal) in MOM of isolated yeast mitochondria [1]: prevention and reversal of the C16-ceramide channels was observed
- effect on conductance of a stable C16-ceramide channel [2]: dramatic decrease in the ceramide conductance to baseline
- level at which disassembly of preformed C16-ceramide channels was observed ([3]; C16-ceramide before protein (reversal), biphasic, FIG. 15A): ≤ 5 µg
- level giving almost complete prevention of C16-ceramide channel formation ([3]; protein 10 min before 20 μM C16-ceramide 10 min, FIG. 15A): 1.5 µg

Molecule: ceramide
- ceramide:phospholipids ratio needed to permeabilize an erythrocyte membrane relative to MOM (erythrocytes): 20 fold
- ceramide inserted sufficient to permeabilize the outer membrane to cytochrome c ([3]; radiolabeled ceramide, rat liver mitochondria, FIG. 12): 2 pmoles per nmole of phospholip

Molecule: dihydroceramide
- effect on already formed ceramide channels [4]: does not induce channel disassembly
- level that inhibits ceramide channel formation, relative to the ceramide level ([4]; found in liposomes and isolated mitochondria, FIG. 11 with C2-ceramide): 10%
- permeabilization of the MOM to cytochrome c ([3]; inserts into mitochondrial membranes to the same degree as ceramide): lack of effect
